According to patent US7700797B2, “Use of hydrolysis resistant organomodified silylated surfactants” (Momentive Performance Materials Inc., priority 2006, dated 2010):

Tests used:
[1] = Surface tension, Kruss surface tensiometer; assay type: physicochemical; conditions: 0.1 wt % in 0.005M NaCl water
Experimental: Surface tension was measured using a Kruss surface tensiometer, with a sand blasted platinum blade as the sensor. Solutions of the various components were prepared at 0.1 wt % in 0.005M NaCl water (deionized), as an equilibrium aid.

[2] = Spreading of 10 μL droplet on polystyrene Petri dishes; assay type: physicochemical; conditions: 30 seconds
Experimental: Spreading was determined by applying a 10 μL droplet, of surfactant solution to polystyrene Petri dishes (Fisher Scientific) and measuring the spread diameter (mm) after 30 seconds, at a relative humidity between 50 and 70% (at 22 to 25° C.). The solution was applied with an automatic pipette to provide droplets of reproducible volume. Deionized water that was further purified with a Millipore filtration system was used to prepare the surfactant solutions.

| Compound | Surface Tension [1] [mN/m] | Spread Diameter ([2]; 0.05% surfactant) [mm] | Spread Diameter ([2]; 0.1% surfactant) [mm] | Spread Diameter ([2]; 0.3% surfactant) [mm] | Spread Diameter ([2]; 0.5% surfactant) [mm] |
| --- | --- | --- | --- | --- | --- |
| C[Si](C)(C)C[Si](C)(C)CCCOCCOCCOCCOCCO [Product 6] | 22.5 | 40 | 45 | 53 | 47 |
| C[Si](C)(C)CC[Si](C)(C)CCCOCCOCCOCCOCCO [Product 7] | 22.7 | 30 | 42 | 48 | 49 |
| Octylphenolethoxylate [OPE] | 31.8 | – | 9 | – | 10 |

Next, values leading:

| Surface Tension [1] [mN/m] | Spread Diameter ([2]; 0.05% surfactant) [mm] | Spread Diameter ([2]; 0.1% surfactant) [mm] | Spread Diameter ([2]; 0.3% surfactant) [mm] | Spread Diameter ([2]; 0.5% surfactant) [mm] | Compound |
| --- | --- | --- | --- | --- | --- |
| 27.7 | – | 7 | – | 7 | C[Si](C)(C)C[Si](C)(C)CCCOCCOCCOCCOCCOCCOCCOCCOCCOCCOCCOCCO [Product 8] |
| 26.7 | – | 7 | – | 7 | C[Si](C)(C)CC[Si](C)(C)CCCOCCOCCOCCOCCOCCOCCOCCOCCOCCOCCOCCO [Product 9] |
